The values that follow come from publication PMC3880597 (Journal of medicinal chemistry, 2013).

Series [1] in a line: Pharmacokinetics and brain distribution after single sc dose to mice. The format is in vivo.
Series [2] addresses MMP-9cat (catalytic domain of human recombinant MMP-9) (Homo sapiens, UniProt P14780). The experiment in a line: MMP inhibition kinetics, MMP-9cat. The format is biochemical. Particulars: slow-binding; Ki calculated from koff/kon.
The nature of series [3]: Metabolic stability in male rat liver S9. The format is in vitro ADME.
Setting [4] is: female, C57Bl/6J, mouse, in vivo, 25 mg/kg.
The mark [5] stands for this setting: female, C57Bl/6J, mouse, in vivo, sc, 25 mg/kg.

Where only a bound is given, the exact number is not on record here.

As a reminder, the AUC(0-inf) is the area under the concentration-time curve extrapolated to infinity. High values mean high exposure, low ones low exposure. By AUC(0-t) is commonly meant the area under the concentration-time curve up to a stated or last time point. The low end stands for less exposure, the high end for more exposure. A word on the Tmax: it is the time at which the peak concentration occurs. As a reminder, the half-life is the time needed for the level to fall by half in the phase considered. Low readings indicate fast loss, high ones slow loss.

Sequence of MMP-9cat (catalytic domain of human recombinant MMP-9) (P14780 107-444 limits assumed): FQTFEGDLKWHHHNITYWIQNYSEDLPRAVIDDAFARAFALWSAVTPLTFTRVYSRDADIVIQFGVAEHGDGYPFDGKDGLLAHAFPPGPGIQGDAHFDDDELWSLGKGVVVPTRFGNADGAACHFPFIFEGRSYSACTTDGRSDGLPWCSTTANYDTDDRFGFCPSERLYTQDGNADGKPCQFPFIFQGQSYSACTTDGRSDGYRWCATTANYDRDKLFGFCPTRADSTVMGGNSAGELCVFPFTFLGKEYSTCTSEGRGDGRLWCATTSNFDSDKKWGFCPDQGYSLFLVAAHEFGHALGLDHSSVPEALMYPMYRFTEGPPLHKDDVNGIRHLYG

Turning to `O=S(=O)(CC1CS1)c1ccc(Oc2ccc(O)cc2)cc1` (stereo not drawn) [Compound 2], in series [1] (after 25 mg/kg sc dose of 5b), the “time of maximal brain level of 2” value is 20 min. Further, the “maximal brain level of 2, molar equivalent” value in series [1] (after 25 mg/kg sc dose of 5b, at 20 min, assuming a density of 1.0 g/mL) was 1.35 ± 1.10 µM. Besides, the “brain level of 2 at 4 h” value in series [1] (after 25 mg/kg sc dose of 5b, mice) came to 0.255 ± 0.0154 pmol/mg. For the same compound, the “maximal plasma concentration of 2” value in series [1] (after 25 mg/kg sc dose of 5b, mice, at 10 min) is 1.24 ± 0.676 µM. Moreover, the “maximal brain level of 2” value in series [1] (after 25 mg/kg sc dose of 5b, mice, at 20 min) amounted to 1.35 ± 1.10 pmol/mg tissue. The “t½α, plasma” value in series [1] (compound 2 after 25 mg/kg sc dose of 5b, mice) was found to be 0.688 h. Besides, in series [1] (setting [4]), the Kp turned out to be 1.64 and the concentration at 4 h amounted to 114 ± 14.7 nM. Besides, in series [1] (setting [5]), the AUC(0-inf) is 1.17 µM·h, the exposure AUC(0-t) was 0.9 µM·h and the Tmax is 0.167 h. Also, the half-life in series [1] (female, C57Bl/6J, mouse, in vivo, sc, 25 mg/kg, t½β, brain) was determined as 8.88 h. In series [1] (female, C57Bl/6J, mouse, in vivo, sc, 25 mg/kg, t½β, plasma), this compound had a half-life of 7.7 h. This compound also gave a half-life in series [1] (female, C57Bl/6J, mouse, in vivo, sc, terminal half-life in brain) of 8.9 h. Also, the half-life in series [1] (female, C57Bl/6J, mouse, in vivo, sc, terminal half-life in plasma) was 7.7 h. Also, in series [1] (mouse, in vivo, sc, 25 mg/kg), the “AUC0-last, brain” value stood at 88.8 pmol·min/mg and the “AUC0-∞, brain” value turned out to be 129 pmol·min/mg.

For the compound `CCOC(=O)Oc1ccc(Oc2ccc(S(=O)(=O)CC3CS3)cc2)cc1` (stereo not drawn) [Compound 4b, Ethyl (4-(4-((thiiran-2-ylmethyl)sulfonyl)phenoxy)phenyl) carbonate], the “Ki (inhibition constant) against MMP-9cat” value in series [2] is on record as “comparable inhibition constants against MMP-9cat as ND-322”. Besides, the “time to complete hydrolysis to compound 2” value in series [3] is on record as ≤ 5 min.

In the case of `CCNC(=O)Oc1ccc(Oc2ccc(S(=O)(=O)CC3CS3)cc2)cc1` (stereo not drawn) [Compound 5b, 4-(4-((Thiiran-2-ylmethyl)sulfonyl)phenoxy)phenyl ethylcarbamate], the “level of 5b in plasma or brain” value in series [1] (after 25 mg/kg sc dose of 5b, all time points) is “not quantifiable”.

`CCNC(=O)Nc1ccc(Oc2ccc(S(=O)(=O)CC3CS3)cc2)cc1` (stereo not drawn) [Compound 6b, 1-Ethyl-3-(4-(4-((thiiran-2-ylmethyl)sulfonyl)phenoxy)phenyl)urea]: in series [1] (6b after 25 mg/kg sc dose of 6b), the “elimination half-life in brain relative to plasma” value is 3.3 fold. Besides, in series [1] (after 25 mg/kg sc dose of 6b), the “hydrolysis of 6b to give compound 3 in plasma and brain” value is “not observed”; the “time of maximal brain level of 6b” value was 10 min.

Consider `CCOC(=O)Nc1ccc(Oc2ccc(S(=O)(=O)CC3CS3)cc2)cc1` (stereo not drawn) [Compound 7b, Ethyl (4-(4-((thiiran-2-ylmethyl)sulfonyl)phenoxy)phenyl)carbamate], for which the “Ki (inhibition constant) against MMP-9cat” value in series [2] is recorded as “comparable inhibition constants against MMP-9cat as ND-322”.
